What was measured:
p38α = target: T1, p38α (Homo sapiens, UniProt Q16539); test: ADP-Glo kinase assay with Promega p38α Kinase Enzyme System; type: biochemical
T1 construct: gene MAPK14

JNK1 = target: T2, JNK1 (Homo sapiens, UniProt P45983); test: ADP-Glo kinase assay with Promega JNK1 Kinase Enzyme System; type: biochemical
T2 construct: gene MAPK8
T2 sequence (P45983 whole entry): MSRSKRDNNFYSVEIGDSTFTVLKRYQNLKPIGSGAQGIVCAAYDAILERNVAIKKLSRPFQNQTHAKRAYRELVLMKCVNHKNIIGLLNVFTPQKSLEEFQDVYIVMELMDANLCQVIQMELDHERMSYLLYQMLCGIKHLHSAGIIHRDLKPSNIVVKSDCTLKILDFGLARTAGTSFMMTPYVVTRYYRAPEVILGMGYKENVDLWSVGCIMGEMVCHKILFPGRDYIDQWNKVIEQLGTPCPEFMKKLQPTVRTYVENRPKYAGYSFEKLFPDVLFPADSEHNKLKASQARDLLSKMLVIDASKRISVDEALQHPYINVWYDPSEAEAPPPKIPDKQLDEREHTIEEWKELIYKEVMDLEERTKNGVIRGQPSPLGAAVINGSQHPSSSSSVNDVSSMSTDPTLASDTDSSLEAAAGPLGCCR

T1 sequence (Q16539 2-360): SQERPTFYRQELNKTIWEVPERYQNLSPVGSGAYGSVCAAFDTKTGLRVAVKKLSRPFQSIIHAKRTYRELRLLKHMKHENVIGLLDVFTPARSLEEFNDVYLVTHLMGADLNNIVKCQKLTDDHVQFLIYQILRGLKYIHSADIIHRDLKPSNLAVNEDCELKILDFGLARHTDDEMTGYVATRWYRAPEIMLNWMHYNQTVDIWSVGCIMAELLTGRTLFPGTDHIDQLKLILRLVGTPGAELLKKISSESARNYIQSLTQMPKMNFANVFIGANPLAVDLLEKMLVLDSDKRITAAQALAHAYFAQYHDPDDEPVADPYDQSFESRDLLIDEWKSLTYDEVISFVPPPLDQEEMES

## O=C1c2c(O)cccc2C([C@@H]2O[C@H](CO)[C@@H](O)[C@H](O)[C@H]2O)c2cc(CO)cc(O)c21 (some centres unmarked) [aloin]
p38α
  IC50: 223 µM
JNK1
  IC50: 3920 µM

— PMC12289626, “Aloin protects against UVB-induced apoptosis by modulating integrated signaling pathways” (Frontiers in Pharmacology, 2025)
